Structures are written as SMILES.

Usually AC50 stands for the concentration giving half of the maximal activity seen. In general, IC50 refers to the midpoint of a concentration-inhibition curve. By GI50 is commonly meant the concentration at which growth is held to half of that of the control.

What all share (assay type): cell-based
In assay [1] the test system is HTT mRNA. Description: Splicing RT-qPCR assay (THP), Table 2A. Conditions: Table 2A, THP; for AC50: HTT alternative junction (AJ) mRNA, read-out: HTT AJ (AC50, increase in alternative junction mRNA); for IC50: HTT canonical junction (CJ) mRNA, read-out: HTT CJ (IC50, decrease in canonical junction mRNA).
The subject of assay [2] is MYB mRNA. Description: Splicing RT-qPCR assay (THP), Table 2A. The conditions noted are these: Table 2A, THP; for AC50: MYB alternative junction (AJ) mRNA, read-out: MYB AJ (AC50, increase in alternative junction mRNA); for IC50: MYB canonical junction (CJ) mRNA, read-out: MYB CJ (IC50, decrease in canonical junction mRNA).
Assay [3] concerns HTT mRNA. Description: Gene panel canonical junction qPCR assay, decrease in CJ mRNA, Table 3. Conditions: decrease in CJ mRNA levels, canonical junction qPCR, gene panel. Summed up: (§1)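 Canonical exon-junction (CJ) transcript measured by 5′ nuclease RT-qPCR, normalized to GAPDH, GUSB or PPIA and to DMSO control (2^(−ΔΔCt)). A673 or K562 cells treated 24 h at 37° C with an 11-point 3-fold dilution series, top 10 uM, DMSO ≤0.25%. IC50 from 4-parameter logistic fit of percentage CJ decrease.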

For assay [4], the system named is MYB mRNA. The description is as above. Conditions: decrease in CJ mRNA levels, canonical junction qPCR, gene panel. The method in brief: as §1
Background: In qPCR the cycle at which signal appears reflects the starting amount.

Assay [5] deals with SH-SY5Y (human neuroblastoma) cells. Description: Cell viability, Cell Titer Glo 2.0 assay. The conditions noted are these: read-out: Viability SHSY5Y.3 GI50. Summed up:
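SH-SY5Y cells were exposed to serially diluted compounds in IMDM with 10% FBS and 0.1% DMSO for 72 hours at 37° C., 5% CO2. Viability was measured by CellTiter-Glo 2.0 luminescence, with medium-only wells as blank.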
(In ATP-based viability assays light output follows the ATP content of the culture.)

On to `COc1nc2c(C(=O)Nc3cc(F)c4nn(C)cc4c3)ccc(N3C[C@@H](C)N(C)[C@@H](C)C3)c2s1` [Compound 744, N-(7-fluoro-2-methyl-indazol-5-yl)-2-methoxy-7-[(3R,5S)-3,4,5-trimethylpiperazin-1-yl]-1,3-benzothiazole-4-carboxamide], for which the concentration at half-maximal activity (AC50) was 0.1 to 1 µM with HTT mRNA [1] and less than 0.1 µM in the assay with MYB mRNA [2]. The IC50 in the assay with HTT mRNA [1] was 1 to 10 µM; in the assay on MYB mRNA [2] it was less than 0.1 µM; in the assay with HTT mRNA [3] it was 1 to 10 µM; in the assay with MYB mRNA [4] it was less than 0.1 µM. Further, the GI50 in assay [5] was 0.1 to 1 µM.
On to `COc1nc2c(C(=O)Nc3cc(F)c4nn(C)cc4c3)ccc(N3CCN4CCC[C@H]4C3)c2s1` [Compound 745, 7-[(8aS)-3,4,6,7,8,8a-hexahydro-1H-pyrrolo[1,2-a]pyrazin-2-yl]-N-(7-fluoro-2-methyl-indazol-5-yl)-2-methoxy-1,3-benzothiazole-4-carboxamide], for which the half-maximal activity concentration (AC50) in the assay on HTT mRNA [1] was 0.1 to 1 µM; in the assay with MYB mRNA [2] it was less than 0.1 µM. The IC50 is 0.1 to 1 µM in the assay on HTT mRNA [1], less than 0.1 µM with MYB mRNA [2], 0.1 to 1 µM with HTT mRNA [3] and less than 0.1 µM in the assay with MYB mRNA [4]. Further, in assay [5], the 50% growth inhibitory concentration (GI50) was in the range of 0.1 to 1 µM.
In the case of `COc1nc2c(C(=O)Nc3cc(F)c4nn(C)cc4c3)ccc(N3CCN4CCCC[C@H]4C3)c2s1` [Compound 746], the half-maximal activity concentration (AC50) was 0.1 to 1 µM with HTT mRNA [1] and less than 0.1 µM in the assay with MYB mRNA [2]. The half-maximal inhibitory concentration (IC50) with HTT mRNA [1], in the assay on MYB mRNA [2], in the assay with HTT mRNA [3] and in the assay with MYB mRNA [4] was 0.1 to 1 µM in each case. Besides, the GI50 in assay [5] was 0.1 to 1 µM.
In the case of `CN[C@@H]1CCN(c2ccc(C(=O)Nc3cc(F)c4nn(C)cc4c3)c3nc(OC)sc23)C1` [Compound 747, N-(7-fluoro-2-methyl-indazol-5-yl)-2-methoxy-7-[(3R)-3-(methylamino)pyrrolidin-1-yl]-1,3-benzothiazole-4-carboxamide], the AC50 in the assay on HTT mRNA [1] was 0.1 to 1 µM; in the assay on MYB mRNA [2], less than 0.1 µM. Also, the half-maximal inhibitory concentration (IC50) with HTT mRNA [1] is 0.1 to 1 µM; with MYB mRNA [2] it was less than 0.1 µM; in the assay on HTT mRNA [3] it was 0.1 to 1 µM; with MYB mRNA [4] it was less than 0.1 µM. Moreover, the concentration for 50% growth inhibition (GI50) in assay [5] lay within 0.1 to 1 µM.
As for `CN[C@H]1CCN(c2ccc(C(=O)Nc3cc(F)c4nn(C)cc4c3)c3nc(OC)sc23)C1` [Compound 748, N-(7-fluoro-2-methyl-indazol-5-yl)-2-methoxy-7-[(3S)-3-(methylamino)pyrrolidin-1-yl]-1,3-benzothiazole-4-carboxamide], the AC50 in the assay with HTT mRNA [1] is 0.1 to 1 µM; in the assay with MYB mRNA [2], less than 0.1 µM. For the same compound, the 50% inhibitory concentration (IC50) in the assay with HTT mRNA [1] is 1 to 10 µM; with MYB mRNA [2], less than 0.1 µM; in the assay with HTT mRNA [3] it was 1 to 10 µM; in the assay with MYB mRNA [4], less than 0.1 µM. Besides, the 50% growth inhibitory concentration (GI50) in assay [5] is 0.1 to 1 µM.
In the case of `CNC1CN(c2ccc(C(=O)Nc3cc(F)c4nn(C)cc4c3)c3nc(OC)sc23)C1` [Compound 749, N-(7-fluoro-2-methyl-indazol-5-yl)-2-methoxy-7-[3-(methylamino)azetidin-1-yl]-1,3-benzothiazole-4-carboxamide], the concentration at half-maximal activity (AC50) in the assay with HTT mRNA [1] and in the assay with MYB mRNA [2] was 0.1 to 1 µM each time. In addition, the 50% inhibitory concentration (IC50) was 0.1 to 1 µM with HTT mRNA [1], less than 0.1 µM with MYB mRNA [2], 0.1 to 1 µM in the assay with HTT mRNA [3] and less than 0.1 µM in the assay with MYB mRNA [4]. In assay [5], the GI50 lay within 0.1 to 1 µM.
Turning to `CNCC1CN(c2ccc(C(=O)Nc3cc(F)c4nn(C)cc4c3)c3nc(OC)sc23)C1` [Compound 750], the AC50 with HTT mRNA [1] is 0.1 to 1 µM; in the assay on MYB mRNA [2], less than 0.1 µM. The IC50 in the assay on HTT mRNA [1], with MYB mRNA [2], in the assay with HTT mRNA [3] and with MYB mRNA [4] was less than 0.1 µM throughout. Further, the 50% growth inhibitory concentration (GI50) in assay [5] lay within 0.1 to 1 µM.
Take `Cc1cn2cc(NC(=O)c3ccc(N4CCC(NC5CC5)CC4)c4cn(C)nc34)nc2c(CNS(=O)(=O)CCO)n1` [Compound 752, 4-[4-(cyclopropylamino)-1-piperidyl]-N-[8-[(2-hydroxyethylsulfonylamino)methyl]-6-methyl-imidazo[1,2-a]pyrazin-2-yl]-2-methyl-indazole-7-carboxamide]: the AC50 in the assay on HTT mRNA [1] and in the assay with MYB mRNA [2] was greater than 10 µM in each case. In addition, the 50% inhibitory concentration (IC50) with HTT mRNA [1], in the assay on MYB mRNA [2], with HTT mRNA [3] and in the assay with MYB mRNA [4] was greater than 10 µM throughout. Further, in assay [5], the concentration for 50% growth inhibition (GI50) was greater than 10 µM.
For `Cc1cn2cc(NC(=O)c3ccc(N4CCC(NC5CC5)CC4)c4cn(C)nc34)nc2c(CCN)n1` [Compound 753, N-[8-(2-aminoethyl)-6-methyl-imidazo[1,2-a]pyrazin-2-yl]-4-[4-(cyclopropylamino)-1-piperidyl]-2-methyl-indazole-7-carboxamide], the AC50 in the assay on HTT mRNA [1] and with MYB mRNA [2] was greater than 10 µM in each case. For the same compound, the IC50 with HTT mRNA [1], in the assay on MYB mRNA [2], with HTT mRNA [3] and in the assay on MYB mRNA [4] was greater than 10 µM each time. In addition, in assay [5], the GI50 was greater than 10 µM.
On to `Cc1cn2cc(NC(=O)c3ccc(N4CCC(NC5CC5)CC4)c4cn(C)nc34)nc2c(CNC(=N)N)n1` [Compound 754, 4-(4-(cyclopropylamino)piperidin-1-yl)-N-(8-(guanidinomethyl)-6-methylimidazo[1,2-a]pyrazin-2-yl)-2-methyl-2H-indazole-7-carboxamide bis(2,2,2-trifluoroacetate)], for which the half-maximal activity concentration (AC50) in the assay on HTT mRNA [1] and in the assay on MYB mRNA [2] was greater than 10 µM in each case. The IC50 with HTT mRNA [1], in the assay on MYB mRNA [2], in the assay with HTT mRNA [3] and in the assay with MYB mRNA [4] was greater than 10 µM each time. Further, in assay [5], the GI50 is greater than 10 µM.
Take `Cc1nc2c(F)cc(NC(=O)c3ccc(N4CCC(NC5CC5)CC4)c4cn(C)nc34)cn2n1` [Compound 755, 4-[4-(cyclopropylamino)-1-piperidyl]-N-(8-fluoro-2-methyl-[1,2,4]triazolo[1,5-a]pyridin-6-yl)-2-methyl-indazole-7-carboxamide]: the concentration at half-maximal activity (AC50) with HTT mRNA [1] is 1 to 10 µM; in the assay with MYB mRNA [2], less than 0.1 µM. Also, the IC50 in the assay with HTT mRNA [1] fell in the range of 1 to 10 µM; in the assay with MYB mRNA [2], 0.1 to 1 µM; in the assay with HTT mRNA [3], 1 to 10 µM; with MYB mRNA [4], 0.1 to 1 µM. Besides, in assay [5], the GI50 lay in the range of 0.1 to 1 µM.
As to `COc1nc2c(C(=O)Nc3cc(F)c4nn(C)nc4c3)ccc(N3C[C@H](C)N[C@@H](C)C3)c2s1` [Compound 756, 7-[(3S,5S)-3,5-dimethylpiperazin-1-yl]-N-(7-fluoro-2-methyl-benzotriazol-5-yl)-2-methoxy-1,3-benzothiazole-4-carboxamide], the AC50 in the assay with HTT mRNA [1] was 0.1 to 1 µM; with MYB mRNA [2], less than 0.1 µM. Besides, the 50% inhibitory concentration (IC50) is 0.1 to 1 µM in the assay with HTT mRNA [1], less than 0.1 µM in the assay on MYB mRNA [2], 0.1 to 1 µM in the assay with HTT mRNA [3] and less than 0.1 µM in the assay on MYB mRNA [4]. The GI50 in assay [5] is less than 0.1 µM.
For `COc1nc2c(C(=O)Nc3cc(C#N)c4nn(C)cc4c3)ccc(N3C[C@H](C)N[C@@H](C)C3)c2s1` [Compound 757, N-(7-cyano-2-methyl-indazol-5-yl)-7-[(3S,5S)-3,5-dimethylpiperazin-1-yl]-2-methoxy-1,3-benzothiazole-4-carboxamide], the concentration at half-maximal activity (AC50) is 1 to 10 µM in the assay with HTT mRNA [1] and less than 0.1 µM with MYB mRNA [2]. Also, the half-maximal inhibitory concentration (IC50) was greater than 10 µM in the assay on HTT mRNA [1], less than 0.1 µM in the assay on MYB mRNA [2], greater than 10 µM in the assay with HTT mRNA [3] and less than 0.1 µM in the assay on MYB mRNA [4]. Also, in assay [5], the GI50 lay in the range of 0.1 to 1 µM.
On to `COc1nc2c(C(=O)Nc3cc(C#N)c4nc(C)cn4c3)ccc(N3C[C@H](C)N[C@@H](C)C3)c2s1` [Compound 758, N-(8-cyano-2-methyl-imidazo[1,2-a]pyridin-6-yl)-7-[(3S,5S)-3,5-dimethylpiperazin-1-yl]-2-methoxy-1,3-benzothiazole-4-carboxamide], for which the AC50 was greater than 10 µM in the assay on HTT mRNA [1] and less than 0.1 µM with MYB mRNA [2]. The IC50 in the assay on HTT mRNA [1] is greater than 10 µM; in the assay on MYB mRNA [2] it was less than 0.1 µM; with HTT mRNA [3], greater than 10 µM; in the assay on MYB mRNA [4], less than 0.1 µM. For the same compound, the GI50 in assay [5] was 0.1 to 1 µM.
`COc1nc2c(C(=O)Nc3cn4cc(C)nc4c(OC)n3)ccc(N3C[C@H](C)N[C@@H](C)C3)c2s1` [Compound 759, 7-((3S,5S)-3,5-dimethylpiperazin-1-yl)-2-methoxy-N-(8-methoxy-2-methylimidazo[1,2-a]pyrazin-6-yl)benzo[d]thiazole-4-carboxamide 2,2,2-trifluoroacetate]: the AC50 in the assay with HTT mRNA [1] is 1 to 10 µM; in the assay on MYB mRNA [2] it was less than 0.1 µM. In addition, the half-inhibitory concentration (IC50) in the assay with HTT mRNA [1] was 1 to 10 µM; with MYB mRNA [2] it was less than 0.1 µM; with HTT mRNA [3], 1 to 10 µM; in the assay on MYB mRNA [4], less than 0.1 µM. The 50% growth inhibitory concentration (GI50) in assay [5] lay within 0.1 to 1 µM.
In the case of `COc1nc2c(C(=O)Nc3ccc4c(c3)CCCO4)ccc(N3C[C@H](C)N[C@@H](C)C3)c2s1` [Compound 760], the half-maximal activity concentration (AC50) with HTT mRNA [1] and with MYB mRNA [2] was greater than 10 µM each time. Further, the IC50 in the assay with HTT mRNA [1], with MYB mRNA [2], in the assay with HTT mRNA [3] and with MYB mRNA [4] was greater than 10 µM throughout. In addition, the GI50 in assay [5] fell in the range of 1 to 10 µM.

These data come from US20260285853A1, “COMPOUNDS AND METHODS FOR MODULATING SPLICING” (REMIX THERAPEUTICS INC., priority 2023, published 2026).
